We go through one compound from US10342760B2, “Lipid nanoparticles for transfection and related methods” (The University of British Columbia, priority 2013, dated 2019).

As usually defined, the pKa is the negative logarithm of the acid dissociation constant.

This data set can be described thus: Apparent pKa of ionizable cationic lipid. In kind it is physicochemical.

For `CCCCCCCCC1CC1CCCCCCCCC(CCCCCCCCC1CC1CCCCCCCC)OC(=O)CCCN(C)C` (stereo not shown) [Cationic Lipid A, 1,17-bis(2-octylcyclopropyl)heptadecan-9-yl-4-(dimethylamino)butanoate], the pKa turned out to be 6.3.
